# Source: article PMC6271887, “Antiparasitic Activity of Natural and Semi-Synthetic Tirucallane Triterpenoids from Schinus terebinthifolius (Anacardiaceae): Structure/Activity Relationships” (Molecules, 2014)
# Like-named read-outs stand apart in the source and are kept apart here.
# How the values were obtained:
# [1] = test system: L. infantum intracellular amastigotes; experiment: Activity against L. infantum intracellular amastigotes in peritoneal macrophages (Giemsa, microscopy); assay type: cell-based, Leishmania (L.) infantum; settings: for L. infantum (Amastigotes) Experimental: class, without activity at 100 µg/mL = inactive; for SI AMA: selectivity index amastigotes: CC50 mammalian cells/IC50 Leishmania amastigotes; for IC50: Leishmania infantum, Peritoneal macrophage, intracellular, peritoneal macrophages, 120 h, 100 to 0.78 μg/mL, NA: not active, read-out: IC50 CI95% L. infantum Amastigotes
# Protocol: (§1) Isolated promastigotes of L. (L.) infantum (MHOM/BR/1972/LD) were maintained in M-199 medium supplemented with 10% fetal bovine serum (FBS) and 0.25% hemin at 24 °C. L. infantum was maintained in golden hamsters up to 60–70 days post-infection. Amastigotes were harvested from spleens of infected hamsters by differential centrifugation. T. cruzi trypomastigotes (Y strain) were maintained in LLC-MK2 (ATCC CCL 7) cells using RPMI-1640 medium supplemented with 2% FBS at 37 °C 5% CO2-humidified incubator [21].
# Peritoneal macrophages were collected from the peritoneal cavity of female BALB/c mice by washing with RPMI-1640 without phenol red, supplemented with 10% FBS. NCTC (clone 929) cells were maintained in RPMI-1640 (without phenol red and supplemented with 10% FBS) at 37 °C in a humidified atmosphere containing 5% CO2 [31].
# Peritoneal macrophages were obtained as described previously and L. infantum amastigotes were obtained from spleens of infected hamsters by differential centrifugation. Peritoneal macrophages were seeded at 1 × 10^5 cells per well in Nunc™ 16-well slide chambers (Aldrich, St. Louis, MO, USA) for 24 h at 37 °C in a 5% CO2-humidified incubator. Amastigotes were added to macrophages at 10:1 ratio (amastigotes:macrophage) and incubated for 24 h. Non-internalized parasites were removed by washing twice with medium and the cells were then incubated with compounds in a range concentration of 100 to 0.78 μg/mL for 120 h at 37 °C in 5% CO2, using miltefosine as standard drug. At the end of the assay, the cells were fixed in methanol, stained with Giemsa and observed under a light microscope to determine the number of infected macrophages out of 400 cells.
# [2] = Cytotoxicity against mammalian cells (MTT); assay type: cell-based; settings: mouse
# Protocol: (§2) Peritoneal macrophages were collected from the peritoneal cavity of female BALB/c mice by washing with RPMI-1640 without phenol red, supplemented with 10% FBS. NCTC (clone 929) cells were maintained in RPMI-1640 (without phenol red and supplemented with 10% FBS) at 37 °C in a humidified atmosphere containing 5% CO2 [31]. The 50% cytotoxic concentration (CC50) was determined in NCTC clone 929 cells. NCTC cells were seeded at 6 × 10^4 cells/well in 96-well microplates at 37 °C in a 5% CO2. The mammalian cells were incubated with tested compounds to the highest concentration of 200 μg/mL for 48 h at 37 °C, using miltefosine as standard drug. The viability of the cells was determined by MTT assay at 570 nm. The selectivity index (SI) was determined considering the following equation: CC50 NCTC cells/IC50 parasites.
# [3] = test system: NCTC clone 929 cells; experiment: Cytotoxicity against mammalian cells (MTT); assay type: cell-based
# Protocol: as §2
# [4] = test system: T. cruzi trypomastigotes (Y strain); experiment: Activity against Trypanosoma cruzi trypomastigotes (MTT); assay type: cell-based; settings: for SI TRY: selectivity index trypomastigotes: CC50 mammalian cells/IC50 trypomastigotes; for IC50: Trypanosoma cruzi, 37 °C, 100 to 0.78 μg/mL, NA: not active, read-out: IC50 CI95% T. cruzi Trypomastigotes; for T. cruzi (Trypomastigotes) Experimental: class, without activity at 100 µg/mL = inactive
# Protocol: as §1
# Compounds 1–3, 1a–c, 2a–d, 3a, and 3b were dissolved in DMSO and diluted in RPMI-1640 medium to determine the 50% inhibitory concentration (IC50) as described above for the antileishmanial assay. Free trypomastigotes obtained from LLC-MK2 cultures were counted in a Neubauer hemocytometer and seeded at 1 × 10^6/well in 96-well microplates. The tested compounds were incubated in a range concentration of 100 to 0.78 μg/mL for 24 h at 37 °C in a 5% CO2 humidified incubator, using benznidazole as standard drug. The viability of the trypomastigotes was verified by the MTT assay as described above.
# [5] = test system: L. infantum promastigotes; experiment: Activity against L. infantum promastigotes (MTT, light microscopy); assay type: cell-based; settings: Leishmania infantum; 48 h, 24 °C, 100 to 0.78 μg/mL; NA: not active; read-out: IC50 CI95% L. infantum Promastigotes
# Protocol: as §1
# To determine the 50% inhibitory concentration (IC50) against L. infantum promastigotes, compounds 1–3, 1a–c, 2a–d, 3a, and 3b were previously dissolved in dimethyl sulphoxide (DMSO) and diluted with M-199 medium in 96-well microplates. Promastigotes were counted in a Neubauer hemocytometer and seeded at 1 × 10^6/well with a final volume of 150 μL. The tested compounds were incubated in a range concentration of 100 to 0.78 μg/mL for 48 h at 24 °C. The viability of promastigotes was verified by motility and morphology using light microscopy and by the colorimetric MTT assay. Briefly, 3-[4,5-dimethylthiazol-2-yl]-2,5-diphenyltetrazolium bromide (MTT, 5 mg/mL) was dissolved in phosphate-buffered saline (PBS), sterilized through 0.22 µm membranes and added, 20 µL/well, for 4 h at 24 °C. […]
# [6] = test system: extracellular forms of the parasite; design: method as in PMID 10603400; settings: cited from earlier work
# [7] = test system: T. cruzi trypomastigotes (Y strain); design: method as in PMID 24340110; settings: CI95% not given; cited from earlier work
# [8] = test system: L. infantum promastigotes; design: method as in PMID 24374794; settings: CI95% not given; cited from earlier work
# [9] = test system: L. infantum intracellular amastigotes; design: method as in PMID 24374794; settings: CI95% not given; cited from earlier work
# [10] = NCTC clone 929 cells, NCTC clone 929, 48 h, highest concentration 200 μg/mL, read-out: CC50 CI95% NCTC
Compound,L. infantum (Amastigotes) Experimental [1],CC50 at 48 h ([2]; CC50 CI95% NCTC),NCTC Experimental [3],SI TRY: selectivity index trypomastigotes [4],IC50 ([4]; 24 h),SI AMA: selectivity index amastigotes [1],also measured
"COC(=O)/C(C)=C\CCC(C)[C@@H]1CC[C@]2(C)C3=CCC4C(C)(C)[C@H](O)CC[C@]4(C)C3CC[C@@]12C (stereo partly drawn) [Compound 3a, Methyl 3α-hydroxytirucalla-7,24Z-dien-27-oate]",I,> 200 µg/mL,I,,,,
"C/C(=C/CCC(C)[C@@H]1CC[C@]2(C)C3=CCC4C(C)(C)C(O)CC[C@]4(C)C3CC[C@@]12C)C(=O)O (stereo partly shown) [Compound 1a, 3ξ-Hydroxytirucalla-7,24Z-dien-27-oic acid]",I,69.5 µg/mL,,3.4,20.2 µg/mL,,
"COC(=O)/C(C)=C/CCC(C)[C@@H]1CC[C@]2(C)C3=CCC4C(C)(C)C(=O)CC[C@]4(C)C3CC[C@@]12C (stereo partly shown) [Compound 2d, Methyl 3-oxotirucalla-7,24E-dien-27-oate]",I,,,,,,"T. cruzi (Trypomastigotes) Experimental [4]: I; CC50 at 48 h [2, 10]: > 200 µg/mL; NCTC Experimental ([3]; cytotoxicity class): I"
"CC(CCCC(C)[C@@H]1CC[C@]2(C)C3=CCC4C(C)(C)C(=O)CC[C@]4(C)C3CC[C@@]12C)C(=O)O (stereo partly shown) [Compound 1c, 3-Oxotirucall-7-en-27-oic acid]",I,> 200 µg/mL,I,,,,T. cruzi (Trypomastigotes) Experimental [4]: I
"C/C(=C/CCC(C)[C@@H]1CC[C@]2(C)C3=CCC4C(C)(C)[C@H](O)CC[C@]4(C)C3CC[C@@]12C)C(=O)O (stereo partly drawn) [Compound 3, 3α-Hydroxytirucalla-7,24Z-dien-27-oic acid]",,69 µg/mL,,4.3,16.3 µg/mL,2.4,"IC50 [5]: 57.8 µg/mL; IC50 [1]: 28.9 µg/mL; CC50 CI95% NCTC ([3]; mouse, 48 h): 69.50 (64.01–75.45) μg/mL"
"COC(=O)/C(C)=C\CCC(C)[C@@H]1CC[C@]2(C)C3=CCC4C(C)(C)[C@H](OC(C)=O)CC[C@]4(C)C3CC[C@@]12C (stereo partly drawn) [Compound 3b, Methyl 3α-acetoxytirucalla-7,24Z-dien-27-oate]",I,> 200 µg/mL,I,,,,
"CC(=O)OC1CC[C@]2(C)C3CC[C@@]4(C)[C@H](C(C)CCCC(C)C(=O)O)CC[C@]4(C)C3=CCC2C1(C)C (stereo partly shown) [Compound 2c, 3ξ-Acetoxytirucall-7-en-27-oic acid]",I,57.8 µg/mL,I,1.2,49.2 µg/mL,,
"C/C(=C\CCC(C)[C@@H]1CC[C@]2(C)C3=CCC4C(C)(C)C(=O)CC[C@]4(C)C3CC[C@@]12C)C(=O)O (stereo partly shown) [Compound 2, 3-Oxotirucalla-7,24E-dien-27-oic acid]",,,,6.1,15.8 µg/mL,1.5,"IC50 [1]: 64.9 µg/mL; CC50 at 48 h [2, 10]: 96 µg/mL; CC50 CI95% NCTC ([3]; NCTC clone 929, 48 h, highest concentration 200 μg/mL): 96.48 (77.38–120.30) μg/mL; NCTC Experimental ([3]; cytotoxicity class): I"
"C/C(=C/CCC(C)[C@@H]1CC[C@]2(C)C3=CCC4C(C)(C)C(=O)CC[C@]4(C)C3CC[C@@]12C)C(=O)O (stereo partly shown) [Compound 1, 3-Oxotirucalla-7,24Z-dien-27-oic acid]",,,,,,>3,"IC50 [1]: 66.5 µg/mL; IC50 against T. cruzi trypomastigotes ([4]; 24 h): lack of activity; T. cruzi (Trypomastigotes) Experimental [4]: I; CC50 at 48 h [2, 10]: > 200 µg/mL; NCTC Experimental ([3]; cytotoxicity class): I"
CNC[C@H](O)[C@@H](O)[C@H](O)[C@H](O)CO.[O]=[Sb](=[O])[OH] [glucantime],,,,,,,effectiveness against the extracellular forms of the parasite [6]: no effectiveness
"C/C(=C\CCC(C)[C@@H]1CC[C@]2(C)C3=CCC4C(C)(C)C(O)CC[C@]4(C)C3CC[C@@]12C)C(=O)O (stereo partly shown) [Compound 2a, 3ξ-Hydroxytirucalla-7,24E-dien-27-oic acid]",,95.5 µg/mL,I,3.2,29.6 µg/mL,1.0,IC50 [1]: 97.6 µg/mL
"CC(=O)OC1CC[C@]2(C)C3CC[C@@]4(C)[C@H](C(C)CC/C=C(\C)C(=O)O)CC[C@]4(C)C3=CCC2C1(C)C (stereo partly shown) [Compound 2b, 3ξ-Acetoxytirucalla-7,24E-dien-27-oic acid]",I,69.3 µg/mL,I,1.1,58.4 µg/mL,,
O=C(Cn1ccnc1[N+](=O)[O-])NCc1ccccc1 [benznidazole],,,,,,,IC50 T. cruzi Trypomastigotes (standard drug) [7]: 115 µg/mL
"CC(CCCC(C)[C@@H]1CC[C@]2(C)C3=CCC4C(C)(C)C(O)CC[C@]4(C)C3CC[C@@]12C)C(=O)O (stereo partly shown) [Compound 1b, 3ξ-Hydroxytirucall-7-en-27-oic acid]",I,76.4 µg/mL,,4.3,17.6 µg/mL,,
"CCCCCCCCCCCCCCCCOP(=O)([O-])OCC[N+](C)(C)C [miltefosine, reference compound]",,,,,,7,"CC50 at 48 h [2, 10]: 49.7 µg/mL; IC50 L. infantum Promastigotes (standard drug) [8]: 6.87 µg/mL; IC50 L. infantum Amastigotes (standard drug) [9]: 7.25 µg/mL"
